Source: patent publication US8877748B2, “Heterocyclic fused anthraquinone derivatives, manufacturing method and pharmaceutical composition using thereof” (National Defense Medical Center, priority 2012, dated 2014)

How the values were obtained:
SF-295 = assay: NCI one-dose screening, CNS cancer SF-295; type: cell-based, human; conditions: 10 μM
LOX IMVI = assay: NCI one-dose screening, melanoma LOX IMVI; type: cell-based, human; conditions: 10 μM
NCI-H522 = assay: NCI one-dose screening, non-small cell lung cancer NCI-H522; type: cell-based, human; conditions: 10 μM
CAKI-1 = assay: NCI one-dose screening, renal cancer CAKI-1; type: cell-based, human; conditions: 10 μM
HCT-116 = assay: NCI one-dose screening, colon cancer HCT-116; type: cell-based, human; conditions: 10 μM
NCI-H226 = assay: NCI one-dose screening, non-small cell lung cancer NCI-H226; type: cell-based, human; conditions: 10 μM
MDA, -MB-435 = assay: NCI one-dose screening, breast cancer MDA, -MB-435; type: cell-based, human; conditions: 10 μM; listed under Melanoma
PC-3 = assay: NCI one-dose screening, prostate cancer PC-3; type: cell-based, human; conditions: 10 μM
MOLT-4 = assay: NCI one-dose screening, leukemia MOLT-4; type: cell-based, human; conditions: 10 μM
TK-10 = assay: NCI one-dose screening, renal cancer TK-10; type: cell-based, human; conditions: 10 μM
K562cell line = assay: NCI one-dose screening, leukemia K562; type: cell-based, human; conditions: 10 μM
SK-MEL-5 = assay: NCI one-dose screening, melanoma SK-MEL-5; type: cell-based, human; conditions: 10 μM
COLO 205 = assay: NCI one-dose screening, colon cancer COLO 205; type: cell-based, human; conditions: 10 μM
UACC-62 = assay: NCI one-dose screening, melanoma UACC-62; type: cell-based, human; conditions: 10 μM
RXF, 393 = assay: NCI one-dose screening, renal cancer RXF, 393; type: cell-based, human; conditions: 10 μM
NCl/ADR-RES = assay: NCI one-dose screening, breast cancer NCl/ADR-RES; type: cell-based, human; conditions: 10 μM; listed under Ovarian cancer
M14 = assay: NCI one-dose screening, melanoma M14; type: cell-based, human; conditions: 10 μM
SK-OV-3 = assay: NCI one-dose screening, ovarian cancer SK-OV-3; type: cell-based, human; conditions: 10 μM
OVCAR-8 = assay: NCI one-dose screening, ovarian cancer OVCAR-8; type: cell-based, human; conditions: 10 μM
MCF7 = assay: NCI one-dose screening, breast cancer MCF7; type: cell-based, human; conditions: 10 μM
SR = assay: NCI one-dose screening, leukemia SR; type: cell-based, human; conditions: 10 μM
IGROV1 = assay: NCI one-dose screening, ovarian cancer IGROV1; type: cell-based, human; conditions: 10 μM
HOP-92 = assay: NCI one-dose screening, non-small cell lung cancer HOP-92; type: cell-based, human; conditions: 10 μM
HT29 = assay: NCI one-dose screening, colon cancer HT29; type: cell-based, human; conditions: 10 μM
NCI-H23 = assay: NCI one-dose screening, non-small cell lung cancer NCI-H23; type: cell-based, human; conditions: 10 μM
HL-60, TB = assay: NCI one-dose screening, leukemia HL-60, TB; type: cell-based, human; conditions: 10 μM
T-47D = assay: NCI one-dose screening, breast cancer T-47D; type: cell-based, human; conditions: 10 μM
PRMI-8226 cell line = assay: NCI one-dose screening, leukemia PRMI-8226; type: cell-based, human; conditions: 10 μM
HCC-2998 = assay: NCI one-dose screening, colon cancer HCC-2998; type: cell-based, human; conditions: 10 μM
MDA-MB-231/ATCC = assay: NCI one-dose screening, breast cancer MDA-MB-231/ATCC; type: cell-based, human; conditions: 10 μM
U251 = assay: NCI one-dose screening, CNS cancer U251; type: cell-based, human; conditions: 10 μM
MALME-3M = assay: NCI one-dose screening, melanoma MALME-3M; type: cell-based, human; conditions: 10 μM
SNB-19 = assay: NCI one-dose screening, CNS cancer SNB-19; type: cell-based, human; conditions: 10 μM
SK-MEL-28 = assay: NCI one-dose screening, melanoma SK-MEL-28; type: cell-based, human; conditions: 10 μM
SK-MEL-2 = assay: NCI one-dose screening, melanoma SK-MEL-2; type: cell-based, human; conditions: 10 μM
HCT-15 = assay: NCI one-dose screening, colon cancer HCT-15; type: cell-based, human; conditions: 10 μM
HOP-62 = assay: NCI one-dose screening, non-small cell lung cancer HOP-62; type: cell-based, human; conditions: 10 μM
human tumor cell lines = assay: NCI one-dose screening, Mean / Delta / Range of growth percent over all tested cell lines; type: cell-based; conditions: 10 μM
NCI-H460 = assay: NCI one-dose screening, non-small cell lung cancer NCI-H460; type: cell-based, human; conditions: 10 μM
BT-549 = assay: NCI one-dose screening, breast cancer BT-549; type: cell-based, human; conditions: 10 μM
KM12 = assay: NCI one-dose screening, colon cancer KM12; type: cell-based, human; conditions: 10 μM
SNB-75 = assay: NCI one-dose screening, CNS cancer SNB-75; type: cell-based, human; conditions: 10 μM
[1] = NCI one-dose screening, renal cancer A489; type: cell-based, human; conditions: 10 μM
SF-539 = assay: NCI one-dose screening, CNS cancer SF-539; type: cell-based, human; conditions: 10 μM
A549/ATCC = assay: NCI one-dose screening, non-small cell lung cancer A549/ATCC; type: cell-based, human; conditions: 10 μM
UO-31 = assay: NCI one-dose screening, renal cancer UO-31; type: cell-based, human; conditions: 10 μM
SN12C = assay: NCI one-dose screening, renal cancer SN12C; type: cell-based, human; conditions: 10 μM
ACHN = assay: NCI one-dose screening, renal cancer ACHN; type: cell-based, human; conditions: 10 μM
DU145 = assay: NCI one-dose screening, prostate cancer DU145; type: cell-based, human; conditions: 10 μM
SF-268 = assay: NCI one-dose screening, CNS cancer SF-268; type: cell-based, human; conditions: 10 μM
OVCAR-3 = assay: NCI one-dose screening, ovarian cancer OVCAR-3; type: cell-based, human; conditions: 10 μM
UACC-257 = assay: NCI one-dose screening, melanoma UACC-257; type: cell-based, human; conditions: 10 μM
OVCAR-5 = assay: NCI one-dose screening, ovarian cancer OVCAR-5; type: cell-based, human; conditions: 10 μM
EKVX = assay: NCI one-dose screening, non-small cell lung cancer EKVX; type: cell-based, human; conditions: 10 μM
MDA-MB-468 = assay: NCI one-dose screening, breast cancer MDA-MB-468; type: cell-based, human; conditions: 10 μM
786-O = assay: NCI one-dose screening, renal cancer 786-O; type: cell-based, human; conditions: 10 μM

O=C1c2ccccc2C(=O)c2c1cc(Sc1ccccn1)c1nsnc21 [C58, 4-(pyridin-2-yl-thio)anthra[2,1-c][1,2,5] thia-diazole-6,11-dione]
Growth Percent SF-295 (SF-295): 78.47% | Growth Percent LOX IMVI (LOX IMVI): −54.85% | Growth Percent NCI-H522 (NCI-H522): 48.83% | Growth Percent CAKI-1 (CAKI-1): 59.22% | Growth Percent HCT-116 (HCT-116): −84.89% | Growth Percent NCI-H226 (NCI-H226): 82.43% | Growth Percent MDA-MB-435 (MDA, -MB-435): −80.50% | Growth Percent PC-3 (PC-3): 14.77% | Growth Percent MOLT-4 (MOLT-4): −41.19% | Growth Percent TK-10 (TK-10): 80.94% | Growth Percent K562 (K562cell line): −23.03% | Growth Percent SK-MEL-5 (SK-MEL-5): 61.76% | Growth Percent COLO 205 (COLO 205): 111.91% | Growth Percent UACC-62 (UACC-62): 69.46% | Growth Percent RXF 393 (RXF, 393): 60.19% | Growth Percent NCI/ADR-RES (NCl/ADR-RES): 37.25% | Growth Percent M14 (M14): 73.52% | Growth Percent SK-OV-3 (SK-OV-3): 115.11% | Growth Percent OVCAR-8 (OVCAR-8): 18.67% | Growth Percent MCF7 (MCF7): 68.59% | Growth Percent SR (SR): 0.05% | Growth Percent IGROV1 (IGROV1): −30.93% | Growth Percent HOP-92 (HOP-92): −44.56% | Growth Percent HT29 (HT29): 108.08% | Growth Percent NCI-H23 (NCI-H23): 4.86% | Growth Percent HL-60(TB) (HL-60, TB): −40.05% | Growth Percent T-47D (T-47D): −52.85% | Growth Percent RPMI-8226 (PRMI-8226 cell line): −4.48% | Growth Percent HCC-2998 (HCC-2998): 106.02% | Growth Percent MDA-MB-231/ATCC (MDA-MB-231/ATCC): 4.55% | Growth Percent U251 (U251): 43.78% | Growth Percent MALME-3M (MALME-3M): 18.08% | Growth Percent SNB-19 (SNB-19): 103.09% | Growth Percent SK-MEL-28 (SK-MEL-28): 108.55% | Growth Percent SK-MEL-2 (SK-MEL-2): 14.45% | Growth Percent HCT-15 (HCT-15): 82.58% | Growth Percent HOP-62 (HOP-62): 81.44% | Growth Percent Delta (human tumor cell lines; delta over all cell lines): 125.38% | Growth Percent Mean (human tumor cell lines; mean over all cell lines): 28.56% | Growth Percent Range (human tumor cell lines; range over all cell lines): 214.98% | Growth Percent NCI-H460 (NCI-H460): 89.65% | Growth Percent BT-549 (BT-549): 76.58% | Growth Percent KM12 (KM12): 87.50% | Growth Percent SNB-75 (SNB-75): 70.82% | Growth Percent A498 [1]: 68.74% | Growth Percent SF-539 (SF-539): 93.92% | Growth Percent A549/ATCC (A549/ATCC): 96.53% | Growth Percent UO-31 (UO-31): −79.21% | Growth Percent SN12C (SN12C): 77.39% | Growth Percent ACHN (ACHN): −71.76% | Growth Percent DU145 (DU145): 58.15% | Growth Percent SF-268 (SF-268): 37.83% | Growth Percent OVCAR-3 (OVCAR-3): −90.05% | Growth Percent UACC-257 (UACC-257): −10.49% | Growth Percent OVCAR-5 (OVCAR-5): 118.16% | Growth Percent EKVX (EKVX): 97.65% | Growth Percent MDA-MB-468 (MDA-MB-468): −80.08% | Growth Percent 786-0 (786-O): −96.82%
